Several values for one entry are separate records, joined by “and”; a condition that tells them apart may be missing. Equal entries are not always repeated.
Tested on: BDF1 mice, Adenocarcinoma 755 s.c., tumor weight T/C
Assay: NCI In Vivo Anticancer Drug Screen. Data for tumor model Adenocarcinoma 755 (subcutaneous) in B6D2F1 (BDF1) mice
Conditions: endpoint: mean tumor weight, higher = larger tumour
How it was run: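 Readout: T/C, i.e. treated-group measurement over vehicle-control measurement. Endpoint is survival or tumor size in tumor-bearing mice given compound.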

[1] = dose: 125.0 mg/kg/injection, schedule: Q01DX011 (ip), vehicle: methylcellulose (MC)

SMILES: c1ncc2[nH]cnc2n1
- T/C (dose: 27.33 mg/kg/injection, schedule: Q01DX011 (ip), vehicle: carboxymethylcellulose (CMC)): 71 % of control
- T/C (dose: 49.34 mg/kg/injection, schedule: Q01DX011 (ip), vehicle: carboxymethylcellulose (CMC)): 80 % of control
- T/C (dose: 54.67 mg/kg/injection, schedule: Q01DX011 (ip), vehicle: carboxymethylcellulose (CMC)): 82 % of control
- T/C (dose: 62.5 mg/kg/injection, schedule: Q01DX011 (ip), vehicle: methylcellulose (MC)): 68 % of control
- T/C (dose: 98.68 mg/kg/injection, schedule: Q01DX011 (ip), vehicle: carboxymethylcellulose (CMC)): 71 % of control
- T/C (dose: 109.35 mg/kg/injection, schedule: Q01DX011 (ip), vehicle: carboxymethylcellulose (CMC)): 91 % of control
- T/C [1]: 57 % of control
- T/C (dose: 173.2 mg/kg/injection, schedule: Q01DX011 (ip), vehicle: carboxymethylcellulose (CMC)): 101 % of control
- T/C (dose: 197.35 mg/kg/injection, schedule: Q01DX011 (ip), vehicle: carboxymethylcellulose (CMC)): 69 % of control
- T/C (dose: 218.7 mg/kg/injection, schedule: Q01DX011 (ip), vehicle: carboxymethylcellulose (CMC)): 123 % of control
- T/C (dose: 250.0 mg/kg/injection, schedule: Q01DX011 (ip), vehicle: methylcellulose (MC)): 54 % of control
- T/C (dose: 288.66 mg/kg/injection, schedule: Q01DX011 (ip), vehicle: carboxymethylcellulose (CMC)): 72 % of control
- T/C (dose: 394.7 mg/kg/injection, schedule: Q01DX011 (ip), vehicle: carboxymethylcellulose (CMC)): 35 % of control

SMILES: CCCCCCCCCCCC(=O)N(CC)CC
- T/C (dose: 15.6 mg/kg/injection, schedule: Q01DX011 (ip), vehicle: other): 92 % of control
- T/C (dose: 31.2 mg/kg/injection, schedule: Q01DX011 (ip), vehicle: other): 82 % of control
- T/C (dose: 62.5 mg/kg/injection, schedule: Q01DX011 (ip), vehicle: other): 84 % of control

SMILES: CCOP(=O)(OCC)OCC1OC(n2cnc3c(=S)nc[nH]c32)C(O)C1O (stereo not drawn)
- T/C (dose: 4.0 mg/kg/injection, schedule: Q01DX011 (ip), vehicle: methylcellulose (MC)): 50 % of control
- T/C (dose: 8.0 mg/kg/injection, schedule: Q01DX011 (ip), vehicle: methylcellulose (MC)): 49 % of control
- T/C (dose: 16.0 mg/kg/injection, schedule: Q01DX011 (ip), vehicle: methylcellulose (MC)): 56 % of control
- T/C (dose: 31.0 mg/kg/injection, schedule: Q01DX011 (ip), vehicle: methylcellulose (MC)): 33 % of control
- T/C (dose: 62.0 mg/kg/injection, schedule: Q01DX011 (ip), vehicle: methylcellulose (MC)): 46 % of control
- T/C [1]: 7 % of control

SMILES: c1cncc(CSc2ncnc3nc[nH]c23)c1
- T/C (dose: 0.78 mg/kg/injection, schedule: Q01DX011 (ip), vehicle: methylcellulose (MC)): 79 % of control
- T/C (dose: 1.55 mg/kg/injection, schedule: Q01DX011 (ip), vehicle: methylcellulose (MC)): 40 % of control
- T/C (dose: 3.1 mg/kg/injection, schedule: Q01DX011 (ip), vehicle: methylcellulose (MC)): 61 % of control
- T/C (dose: 6.25 mg/kg/injection, schedule: Q01DX011 (ip), vehicle: methylcellulose (MC)): 8 % of control and 20 % of control
- T/C (dose: 12.5 mg/kg/injection, schedule: Q01DX011 (ip), vehicle: methylcellulose (MC)): 4 % of control
- T/C (dose: 25.0 mg/kg/injection, schedule: Q01DX011 (ip), vehicle: methylcellulose (MC)): 2 % of control
- T/C (dose: 50.0 mg/kg/injection, schedule: Q01DX011 (ip), vehicle: methylcellulose (MC)): 2 % of control

SMILES: C[C@]12CCC(=O)C=C1CC[C@@H]1[C@@H]2C(=O)C[C@@]2(C)[C@H]1CC[C@]2(O)C(=O)COS(=O)(=O)O
- T/C (dose: 5.0 mg/kg/injection, schedule: Q01DX011 (sc), vehicle: steriod suspending solution): 100 % of control
- T/C (dose: 50.0 mg/kg/injection, schedule: Q01DX011 (sc), vehicle: steriod suspending solution): 91 % of control
- T/C (dose: 100.0 mg/kg/injection, schedule: Q01DX011 (sc), vehicle: steriod suspending solution): 57 % of control

SMILES: CCCCn1cnc2c(=S)nc(N)[nH]c21
- T/C (dose: 0.6 mg/kg/injection, schedule: Q01DX011 (ip), vehicle: carboxymethylcellulose (CMC)): 57 % of control
- T/C (dose: 1.2 mg/kg/injection, schedule: Q01DX011 (ip), vehicle: carboxymethylcellulose (CMC)): 35 % of control
- T/C (dose: 1.2 mg/kg/injection, schedule: Q01DX011 (ip), vehicle: olive oil, sesame oil, peanut oil): 60 % of control
- T/C (dose: 2.5 mg/kg/injection, schedule: Q01DX011 (ip), vehicle: carboxymethylcellulose (CMC)): 2 % of control
- T/C (dose: 2.5 mg/kg/injection, schedule: Q01DX011 (ip), vehicle: olive oil, sesame oil, peanut oil): 33 % of control

SMILES: O=C(Nc1ccc(N=Nc2ccc(O)c(C(=O)O)c2)cc1)c1ccc(C(=O)Nc2ccc(N=Nc3ccc(O)c(C(=O)O)c3)cc2)cc1
- T/C (dose: 30.0 mg/kg/injection, schedule: Q01DX011 (ip), vehicle: carboxymethylcellulose (CMC)): 92 % of control
- T/C (dose: 60.0 mg/kg/injection, schedule: Q01DX011 (ip), vehicle: carboxymethylcellulose (CMC)): 75 % of control
- T/C (dose: 120.0 mg/kg/injection, schedule: Q01DX011 (ip), vehicle: carboxymethylcellulose (CMC)): 102 % of control
- T/C (dose: 240.0 mg/kg/injection, schedule: Q01DX011 (ip), vehicle: carboxymethylcellulose (CMC)): 98 % of control

SMILES: CC(C)(CBr)C(=O)N1CCN(C(=O)C(C)(C)CBr)CC1
- T/C (dose: 7.0 mg/kg/injection, schedule: Q01DX011 (ip), vehicle: methylcellulose (MC)): 80 % of control
- T/C (dose: 14.0 mg/kg/injection, schedule: Q01DX011 (ip), vehicle: methylcellulose (MC)): 56 % of control
